Holding throughout (type): in vivo
The test system of assay [1] is Alopecurus myosuroides (ALOMY). The assay is described as follows: Example A pre-emergence herbicidal glasshouse test. The settings on record: 312 h, Rate 250 g/ha, evaluated after 13 days, 100=total damage to plant, 0=no damage to plant. An outline of the steps: (§1)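 Compound sprayed in acetone/water (50:50) plus 0.5% Tween 20 onto potted soil one day post-sowing, or onto seedlings after 8 days. Scored 0–100 for damage after 13 days.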

The test system of assay [2] is Amaranthus retroflexus (AMARE). Briefly: Example A pre-emergence herbicidal glasshouse test. To be noted: 312 h, Rate 250 g/ha, evaluated after 13 days, 100=total damage to plant, 0=no damage to plant. Put shortly: as §1
For assay [3], the system named is Avena fatua (AVEFA). Briefly: Example A pre-emergence herbicidal glasshouse test. To be noted: 312 h, Rate 250 g/ha, evaluated after 13 days, 100=total damage to plant, 0=no damage to plant. An outline of the steps: as §1
In assay [4] the test system is Echinochloa crus-galli (ECHCG). The assay is described as follows: Example A pre-emergence herbicidal glasshouse test. To be noted: 312 h, Rate 250 g/ha, evaluated after 13 days, 100=total damage to plant, 0=no damage to plant. Put shortly: as §1
Assay [5] relates to Setaria faberi (SETFA). The assay is described as follows: Example A pre-emergence herbicidal glasshouse test. The settings on record: 312 h, Rate 250 g/ha, evaluated after 13 days, 100=total damage to plant, 0=no damage to plant. An outline of the steps:
as §1

Assay [6] concerns Alopecurus myosuroides (ALOMY). Briefly: Example A post-emergence herbicidal glasshouse test. The settings on record: 312 h, evaluated after 13 days, 100=total damage to plant, 0=no damage. Put shortly: as §1
Assay [7] has as its system Amaranthus retroflexus (AMARE). The description is as above. The settings on record: 312 h, evaluated after 13 days, 100=total damage to plant, 0=no damage. An outline of the steps: as §1
Assay [8] deals with Avena fatua (AVEFA). Described as above. To be noted: 312 h, evaluated after 13 days, 100=total damage to plant, 0=no damage. An outline of the steps: as §1
Assay [9] deals with Echinochloa crus-galli (ECHCG). The description is as above. The settings on record: 312 h, evaluated after 13 days, 100=total damage to plant, 0=no damage. An outline of the steps:
as §1

The subject of assay [10] is Setaria faberi (SETFA). The description is as above. The settings on record: 312 h, evaluated after 13 days, 100=total damage to plant, 0=no damage. Put shortly:
as §1

Assay [11] relates to Alopecurus myosuroides (ALOMY). Briefly: Example B pre-emergence herbicidal greenhouse test. To be noted: 480 h, evaluated after 20 days, 100=total damage to plant, 0=no damage. An outline of the steps:
(§2)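 Seeds sown in standard soil in pots; after 1 day (pre-emergence) or 10 days (post-emergence) of glasshouse cultivation, pots were sprayed with an aqueous solution of the ingredient formulated in acetone plus an emulsifier/solvent mix. Damage scored 20 days (pre) or 15 days (post) later, 0 (none) to 100 (total).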

The test system of assay [12] is Avena fatua (AVEFA). Briefly: Example B pre-emergence herbicidal greenhouse test. To be noted: 480 h, evaluated after 20 days, 100=total damage to plant, 0=no damage. Put shortly:
as §2

Assay [13] deals with Digitaria sanguinalis (DIGSA). Briefly: Example B pre-emergence herbicidal greenhouse test. To be noted: 480 h, evaluated after 20 days, 100=total damage to plant, 0=no damage. Put shortly: as §2
In assay [14] the test system is Echinochloa crus-galli (ECHCG). The assay is described as follows: Example B pre-emergence herbicidal greenhouse test. The settings on record: 480 h, evaluated after 20 days, 100=total damage to plant, 0=no damage. An outline of the steps:
as §2

Assay [15] has as its system Lolium perenne (LOLPE). The assay is described as follows: Example B pre-emergence herbicidal greenhouse test. The settings on record: 480 h, evaluated after 20 days, 100=total damage to plant, 0=no damage. An outline of the steps: as §2
The test system of assay [16] is Setaria faberi (SETFA). Briefly: Example B pre-emergence herbicidal greenhouse test. The settings on record: 480 h, evaluated after 20 days, 100=total damage to plant, 0=no damage. Put shortly: as §2
For assay [17], the system named is Alopecurus myosuroides (ALOMY). Briefly: Example B post-emergence herbicidal greenhouse test. The settings on record: 360 h, evaluated after 15 days, 100=total damage to plant, 0=no damage. Put shortly:
as §2

In assay [18] the test system is Avena fatua (AVEFA). The assay is described as above. The settings on record: 360 h, evaluated after 15 days, 100=total damage to plant, 0=no damage. Put shortly: as §2
The subject of assay [19] is Digitaria sanguinalis (DIGSA). Described as above. To be noted: 360 h, evaluated after 15 days, 100=total damage to plant, 0=no damage. An outline of the steps:
as §2

In assay [20] the test system is Echinochloa crus-galli (ECHCG). The assay is described as above. The settings on record: 360 h, evaluated after 15 days, 100=total damage to plant, 0=no damage. An outline of the steps: as §2
The subject of assay [21] is Lolium perenne (LOLPE). The assay is described as above. The settings on record: 360 h, evaluated after 15 days, 100=total damage to plant, 0=no damage. An outline of the steps: as §2
Assay [22] deals with Setaria faberi (SETFA). The assay is described as above. The settings on record: 360 h, evaluated after 15 days, 100=total damage to plant, 0=no damage. Put shortly: as §2

The results in this text go back to patent US8828908B2, “Herbicidally active bicyclic 1,3-dione compounds” (Syngenta Limited, priority 2007, dated 2014).

In general, pest or weed control refers to the degree to which the test organism was suppressed or injured, in per cent.

Take `Cc1cc(-c2ccc(Cl)cc2)ccc1C1=C(O)[C@H]2CC[C@H](C2)C1=O` [Compound T61, 3-(4′-chloro-3-methylbiphen-4-yl)bicyclo[3.2.1]octane-2,4-dione]: the pest or weed control at 250 g/ha in [1] was determined as 40%; in assay [2], 0%; in assay [3], 30%; in [4], 80%; in assay [5], 90%; in [6], 100%. Besides, the pest or weed control at 250 g/ha in [7] was found to be 20%; in [8], 60%; in assay [9], 100%; in assay [10], 100%; in assay [11], 100%; in assay [12], 40%. The pest or weed control at 250 g/ha in [13] is 100%; in assay [14], 90%; in assay [15], 90%; in assay [16] it was 100%. Moreover, the pest or weed control at 125 g/ha in assay [17] was 60%; in assay [18], 30%; in [19] it was 100%; in assay [20], 80%; in assay [21] it was 30%; in [22], 90%.

With `CCc1cc(-c2ccc(C)cc2)cc(CC)c1C1=C(O)[C@H]2CC[C@H](C2)C1=O` [Compound T63], the pest or weed control at 250 g/ha stood at 50% in assay [1]; 0% in assay [2]; 30% in assay [3]; 90% in assay [4]; 100% in assay [5]; 70% in [6]. Moreover, the pest or weed control at 250 g/ha in [7] was found to be 0%; in assay [8] it was 50%; in assay [9], 100%; in assay [10] it was 100%; in assay [11] it was 80%; in assay [12], 20%. The pest or weed control at 250 g/ha was determined as 90% in assay [13], 60% in [14], 100% in assay [15] and 70% in assay [16]. Further, the pest or weed control at 125 g/ha worked out at 0% in assay [17]; 20% in assay [18]; 60% in [19]; 50% in assay [20]; 10% in [21]; 50% in [22].

Turning to `CCc1ccc(-c2ccc(Cl)cc2OC)cc1C1=C(O)[C@H]2CC[C@H](C2)C1=O` (single isomer, unassigned) [Compound T43], the pest or weed control at 250 g/ha in assay [1] is 0%; in assay [2], 0%; in [3], 0%; in [4], 90%; in assay [5] it was 30%; in assay [6], 50%. For the same compound, the pest or weed control at 250 g/ha in assay [7] turned out to be 0%; in assay [8], 40%; in assay [9] it was 90%; in [10] it was 80%; in assay [11], 0%; in assay [12], 60%. Also, the pest or weed control at 250 g/ha is 60% in assay [13], 40% in [14], 0% in assay [15] and 20% in [16]. Besides, the pest or weed control at 125 g/ha was found to be 0% in assay [17]; 0% in [18]; 50% in assay [19]; 70% in assay [20]; 30% in [21]; 60% in assay [22].

In the case of `CCc1cc(-c2ccc(Cl)cc2)ccc1C1=C(O)[C@H]2CC[C@H](C2)C1=O` [Compound T59, 3-(4′-chloro-3-ethylbiphen-4-yl)bicyclo[3.2.1]octane-2,4-dione], the pest or weed control at 250 g/ha in [1] is 70%; in [2], 0%; in [3] it was 70%; in assay [4] it was 100%; in [5], 100%; in assay [6], 100%. In addition, the pest or weed control at 250 g/ha in assay [7] amounted to 30%; in assay [8] it was 90%; in assay [9], 100%; in [10], 100%; in assay [11] it was 80%; in [12], 70%. In addition, the pest or weed control at 250 g/ha in assay [13] worked out at 90%; in [14] it was 100%; in assay [15] it was 80%; in assay [16] it was 100%. In addition, the pest or weed control at 125 g/ha amounted to 90% in [17]; 30% in [18]; 100% in [19]; 100% in assay [20]; 80% in [21]; 100% in [22].

In the case of `CCc1ccc(-c2ccc(Cl)c(C)c2)cc1C1=C(O)[C@H]2CC[C@H](C2)C1=O` [Compound T32, 3-(4′-chloro-4-ethyl-3′-methylbiphen-3-yl)bicyclo[3.2.1]octane-2,4-dione], the pest or weed control at 250 g/ha in assay [1] came to 30%; in assay [2] it was 0%; in assay [3], 40%; in [4] it was 100%; in [5] it was 20%; in assay [6], 60%. Further, the pest or weed control at 250 g/ha in [7] came out at 0%; in assay [8] it was 0%; in assay [9], 100%; in assay [10], 90%; in [11] it was 90%; in assay [12], 10%. Further, the pest or weed control at 250 g/ha in [13] stood at 100%; in assay [14], 100%; in assay [15], 90%; in [16], 60%. Further, the pest or weed control at 125 g/ha came out at 30% in assay [17]; 10% in assay [18]; 70% in [19]; 100% in assay [20]; 0% in assay [21]; 30% in [22].

`CCc1ccc(-c2ccc(Cl)cc2Cl)cc1C1=C(OC(C)=O)[C@H]2CC[C@H](C2)C1=O` (single isomer, unassigned) [Compound P7]: the pest or weed control at 250 g/ha in [1] came to 40%; in assay [2], 0%; in assay [3], 90%; in assay [4], 100%; in [5], 100%; in [6] it was 90%. The pest or weed control at 250 g/ha in [7] was 0%; in assay [8], 100%; in [9], 100%; in assay [10], 100%; in assay [11] it was 70%; in assay [12], 30%. Besides, the pest or weed control at 250 g/ha in [13] worked out at 80%; in [14], 50%; in assay [15], 70%; in assay [16], 80%. Besides, the pest or weed control at 125 g/ha in assay [17] came to 60%; in assay [18], 80%; in assay [19], 90%; in assay [20] it was 100%; in assay [21], 70%; in assay [22], 100%.
